Tests used:
mouse TRPA1 = molecular target: T1, mouse TRPA1 (Mus musculus, UniProt Q8BLA8); assay: Current-voltage recordings in mTRPA1-expressing HEK293 cells; type: cell-based; settings: desflurane 1 mM
T1 construct: expressed in transfected cells; host or cells: HEK293
Method: (§1) A genetic approach was used to identify critical sites in TRPA1 and TRPV1 required for activation by general anesthetics. Drosophila TRPA1 is insensitive to desflurane (at concentrations up to 3 mM). […] Note that dTRPA1 is insensitive to AITC. Next, several chimeric TRP proteins containing dTRPA1 (unresponsive to desflurane) and mTRPA1 were tested. For the dTRPA1-mN chimera, the mouse 720 amino acid N-terminus was exchanged for the drosophila N-terminus. The N-terminal domain contains essential binding sites for AITC, and therefore studying this chimera tests an important role for the N-terminus in anesthetic-sensing. […] The mTRPA1-dTM5 construct was then studied, which is the mouse protein containing the fifth transmembrane domain of the drosophila protein.

DRG neurons = assay: Ca2+ imaging in DRG neurons from wild-type mice; type: cell-based, mouse; settings: 1.5 mM, 3 MAC
Method: Ca^2+ Imaging. Neurons were loaded with 1 μM Fluo4-AM (Molecular Probes) for 20 min and washed for a further 10-20 min before recording. The dye was excited at 488±15 nm. Emitted fluorescence was filtered with a 535±25 nm bandpass filter, captured by a SPOT RT digital camera (Diagnostic Instruments) and read into a computer. Analysis was performed offline by using Simple PCI software (Compix Inc.).

mTRPA1-dTM5 = assay: Current-voltage recordings of chimera mTRPA1-dTM5; type: cell-based
Method: as §1

dTRPA1-mN chimera = molecular target: T2, dTRPA1-mN chimera (UniProt Q7Z020+Q8BLA8); assay: Current-voltage recordings of chimera dTRPA1-mN; type: cell-based; settings: mouse N-terminus substituted
T2 construct: mouse TRPA1 N-terminus (720 amino acids); expressed in transfected cells
Method: as §1

TRPM8 = molecular target: T3, TRPM8 (Rattus norvegicus, UniProt Q8R455); assay: Whole-cell patch-clamp of TRPM8-expressing HEK293 cells; type: cell-based
T3 construct: expressed in transfected cells; host or cells: HEK 293F
Method: (§2) Electrophysiology. […] Whole-cell and single-channel patch-clamp recordings were performed by using an EPC8 amplifier (HEKA Electronics). For whole-cell and excised patch recordings the bath solution contained 140 mMNaCl, 4 mMKCl, 1 mMMgCl2, 1.2 mMCaCl2, 10 mMHepes, 10 mM glucose, pH 7.3. For cell-attached experiments, NaCl was replaced with KCl in the bath solution. […] For neuronal recording NaCl was replaced with K-gluconate (plus 1 mMATP, 0.2 mM GTP). Solutions were applied via a gravity-fed system. […] Voltage-dependent properties were measured as described in Matt and Ahern, J. Physiol. […] The baseline currents under control conditions were subtracted. For cell-attached experiments, peak amplitudes were measured from all-points histograms, and open probability was measured as NPo>750 ms. Defolliculated Xenopus laevis oocytes were injected with ≈10 ng of hTRPA1 (gift of Ardem Patapoutian, The Scripps Research Institute, La Jolla, Calif.).

TRPV1 [1] = molecular target: TRPV1 (Rattus norvegicus, UniProt O35433); assay: Whole-cell patch-clamp of TRPV1-expressing HEK293 cells; type: cell-based; design: expressed in transfected cells; host or cells: HEK 293F (Invitrogen), co-transfected with GFP cDNA
Method: as §2
HEK cell and sensory neuron electrophysiology. […] Cell cultures were maintained at 37° C. with 5% CO2. Cells were transfected with rat TRPV 1 (gift of David Julius), and GFP cDNA using Lipofectamine™ Transfection Reagent (Invitrogen) and used 24-48 h after transfection. Nodose ganglia were obtained from adult mice (C57B16/J and TRPV1-null), cut, digested with collagenase, and cultured in Neurobasal +2% B-27 medium (Invitrogen), 0.1% L-glutamine and 1% penicillin/streptomycin on poly-D lysine-coated glass coverslips at 37° C. in 5% CO2. Neurons were used within 24-36 hr of culture. Whole-cell and single-channel patch clamp recordings were performed using an EPC8 amplifier (HEKA). The current signal was low-pass filtered at 1-3 kHz and sampled at 4 kHz. Currents were further filtered for display purposes. For whole-cell and excised patch recordings the bath solution contained (in mM): 140 NaCl, 4 KCl, 1 MgCl2, 1 EGTA, 10 HEPES, 10 glucose pH 7.3 (290 mOsm). The pipette solution contained (in mM): 140 CsC1, 10 NaCl, 10 HEPES, 5 EGTA, 2 Mg ATP and 0.03 GTP, pH 7.3. The peak amplitudes measured either during the prepulse or the tail current (within 1 ms) were plotted as a function of the test potential and normalized to the maximal current obtained from the following Boltzmann function: […]

TRPV1 [2] = molecular target: T4, TRPV1 (Mus musculus, UniProt Q704Y3); assay: Patch-clamp of capsaicin-sensitive sensory neurons (nodose ganglia); type: cell-based
T4 construct: endogenous in cells; host or cells: primary nodose ganglion neurons of adult C57Bl6/J mice
Method: HEK cell and sensory neuron electrophysiology. HEK 293F cells (Invitrogen) were cultured in DMEM supplemented with 1% non-essential amino acids and 10% fetal calf serum. Cell cultures were maintained at 37° C. with 5% CO2. Cells were transfected with rat TRPV 1 (gift of David Julius), and GFP cDNA using Lipofectamine™ Transfection Reagent (Invitrogen) and used 24-48 h after transfection. Nodose ganglia were obtained from adult mice (C57B16/J and TRPV1-null), cut, digested with collagenase, and cultured in Neurobasal +2% B-27 medium (Invitrogen), 0.1% L-glutamine and 1% penicillin/streptomycin on poly-D lysine-coated glass coverslips at 37° C. in 5% CO2. Neurons were used within 24-36 hr of culture. Whole-cell and single-channel patch clamp recordings were performed using an EPC8 amplifier (HEKA). The current signal was low-pass filtered at 1-3 kHz and sampled at 4 kHz. Currents were further filtered for display purposes. For whole-cell and excised patch recordings the bath solution contained (in mM): 140 NaCl, 4 KCl, 1 MgCl2, 1 EGTA, 10 HEPES, 10 glucose pH 7.3 (290 mOsm). The pipette solution contained (in mM): 140 CsC1, 10 NaCl, 10 HEPES, 5 EGTA, 2 Mg ATP and 0.03 GTP, pH 7.3. The peak amplitudes measured either during the prepulse or the tail current (within 1 ms) were plotted as a function of the test potential and normalized to the maximal current obtained from the following Boltzmann function: […]

[3] = isoflurane 0.9 mM, octanol 1 mM

Sequence of TRPV1 (Rattus norvegicus, UniProt O35433) (O35433 whole entry): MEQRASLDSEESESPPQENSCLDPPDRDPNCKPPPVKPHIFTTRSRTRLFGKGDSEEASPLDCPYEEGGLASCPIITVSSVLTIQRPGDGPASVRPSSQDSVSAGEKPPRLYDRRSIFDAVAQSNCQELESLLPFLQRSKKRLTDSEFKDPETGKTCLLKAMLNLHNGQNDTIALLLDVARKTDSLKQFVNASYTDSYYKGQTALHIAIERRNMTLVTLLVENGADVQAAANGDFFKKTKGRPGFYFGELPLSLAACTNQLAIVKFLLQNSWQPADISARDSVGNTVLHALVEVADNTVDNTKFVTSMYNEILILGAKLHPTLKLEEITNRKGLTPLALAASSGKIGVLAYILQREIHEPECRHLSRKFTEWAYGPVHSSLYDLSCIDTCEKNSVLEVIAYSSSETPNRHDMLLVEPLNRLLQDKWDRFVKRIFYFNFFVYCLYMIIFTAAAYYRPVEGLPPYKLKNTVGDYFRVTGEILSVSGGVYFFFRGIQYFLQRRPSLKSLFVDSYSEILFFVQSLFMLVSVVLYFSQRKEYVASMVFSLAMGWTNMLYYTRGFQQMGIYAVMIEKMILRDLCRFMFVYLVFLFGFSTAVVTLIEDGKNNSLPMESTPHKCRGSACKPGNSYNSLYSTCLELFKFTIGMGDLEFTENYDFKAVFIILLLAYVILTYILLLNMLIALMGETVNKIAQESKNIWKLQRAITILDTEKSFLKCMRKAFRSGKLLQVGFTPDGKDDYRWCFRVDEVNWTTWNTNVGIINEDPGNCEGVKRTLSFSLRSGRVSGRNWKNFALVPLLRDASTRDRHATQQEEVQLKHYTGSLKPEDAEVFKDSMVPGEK
T4 sequence (Q704Y3 whole entry): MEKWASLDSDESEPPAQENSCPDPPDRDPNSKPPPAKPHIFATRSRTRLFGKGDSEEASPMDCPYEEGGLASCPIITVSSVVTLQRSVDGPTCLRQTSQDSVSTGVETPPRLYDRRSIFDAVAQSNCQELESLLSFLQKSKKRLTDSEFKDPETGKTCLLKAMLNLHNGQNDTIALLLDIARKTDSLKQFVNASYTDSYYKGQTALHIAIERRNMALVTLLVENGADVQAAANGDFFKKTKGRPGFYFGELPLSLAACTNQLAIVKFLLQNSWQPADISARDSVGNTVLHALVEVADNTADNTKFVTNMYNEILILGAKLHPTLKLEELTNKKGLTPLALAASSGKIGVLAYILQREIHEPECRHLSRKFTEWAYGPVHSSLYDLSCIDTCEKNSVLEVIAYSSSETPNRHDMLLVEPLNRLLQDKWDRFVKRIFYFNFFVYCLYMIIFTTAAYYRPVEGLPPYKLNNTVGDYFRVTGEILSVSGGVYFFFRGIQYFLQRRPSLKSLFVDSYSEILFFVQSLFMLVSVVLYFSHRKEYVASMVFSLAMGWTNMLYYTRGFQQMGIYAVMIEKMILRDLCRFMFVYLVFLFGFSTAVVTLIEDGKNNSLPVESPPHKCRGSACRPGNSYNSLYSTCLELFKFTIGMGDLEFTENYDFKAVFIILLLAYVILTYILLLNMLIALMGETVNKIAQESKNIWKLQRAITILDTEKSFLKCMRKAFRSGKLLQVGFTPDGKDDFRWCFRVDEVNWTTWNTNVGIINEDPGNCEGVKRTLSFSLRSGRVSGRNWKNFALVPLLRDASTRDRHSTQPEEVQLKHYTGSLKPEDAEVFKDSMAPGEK
T3 sequence (Q8R455 whole entry): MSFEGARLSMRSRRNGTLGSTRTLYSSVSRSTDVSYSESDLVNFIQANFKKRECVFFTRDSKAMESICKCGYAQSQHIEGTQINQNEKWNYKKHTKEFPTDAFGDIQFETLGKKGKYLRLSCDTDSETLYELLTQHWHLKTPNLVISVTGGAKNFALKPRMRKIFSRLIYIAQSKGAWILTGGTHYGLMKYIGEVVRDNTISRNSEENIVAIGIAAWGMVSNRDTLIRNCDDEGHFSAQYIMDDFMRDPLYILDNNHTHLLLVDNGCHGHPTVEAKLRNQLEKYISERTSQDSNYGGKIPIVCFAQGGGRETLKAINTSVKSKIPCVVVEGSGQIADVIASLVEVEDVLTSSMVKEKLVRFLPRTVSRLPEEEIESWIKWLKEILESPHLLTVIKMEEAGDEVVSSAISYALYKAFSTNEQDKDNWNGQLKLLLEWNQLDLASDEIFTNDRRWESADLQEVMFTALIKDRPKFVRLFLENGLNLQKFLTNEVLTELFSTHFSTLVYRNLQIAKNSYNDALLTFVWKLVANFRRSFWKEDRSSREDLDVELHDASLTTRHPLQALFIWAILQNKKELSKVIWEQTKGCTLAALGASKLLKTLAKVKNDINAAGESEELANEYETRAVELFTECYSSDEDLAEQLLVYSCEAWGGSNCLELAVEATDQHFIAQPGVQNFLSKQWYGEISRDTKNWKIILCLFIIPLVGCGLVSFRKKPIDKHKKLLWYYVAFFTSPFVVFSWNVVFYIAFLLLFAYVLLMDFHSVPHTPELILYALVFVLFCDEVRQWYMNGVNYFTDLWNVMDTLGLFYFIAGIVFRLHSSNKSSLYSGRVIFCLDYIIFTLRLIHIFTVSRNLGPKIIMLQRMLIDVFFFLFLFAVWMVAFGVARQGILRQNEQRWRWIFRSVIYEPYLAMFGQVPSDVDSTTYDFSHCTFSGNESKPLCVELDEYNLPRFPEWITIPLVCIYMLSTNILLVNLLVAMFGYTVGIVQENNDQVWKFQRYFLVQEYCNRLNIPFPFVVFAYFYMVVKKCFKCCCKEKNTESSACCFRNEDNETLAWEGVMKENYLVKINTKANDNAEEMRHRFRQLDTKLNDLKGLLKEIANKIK
T1 sequence (Q8BLA8 whole entry): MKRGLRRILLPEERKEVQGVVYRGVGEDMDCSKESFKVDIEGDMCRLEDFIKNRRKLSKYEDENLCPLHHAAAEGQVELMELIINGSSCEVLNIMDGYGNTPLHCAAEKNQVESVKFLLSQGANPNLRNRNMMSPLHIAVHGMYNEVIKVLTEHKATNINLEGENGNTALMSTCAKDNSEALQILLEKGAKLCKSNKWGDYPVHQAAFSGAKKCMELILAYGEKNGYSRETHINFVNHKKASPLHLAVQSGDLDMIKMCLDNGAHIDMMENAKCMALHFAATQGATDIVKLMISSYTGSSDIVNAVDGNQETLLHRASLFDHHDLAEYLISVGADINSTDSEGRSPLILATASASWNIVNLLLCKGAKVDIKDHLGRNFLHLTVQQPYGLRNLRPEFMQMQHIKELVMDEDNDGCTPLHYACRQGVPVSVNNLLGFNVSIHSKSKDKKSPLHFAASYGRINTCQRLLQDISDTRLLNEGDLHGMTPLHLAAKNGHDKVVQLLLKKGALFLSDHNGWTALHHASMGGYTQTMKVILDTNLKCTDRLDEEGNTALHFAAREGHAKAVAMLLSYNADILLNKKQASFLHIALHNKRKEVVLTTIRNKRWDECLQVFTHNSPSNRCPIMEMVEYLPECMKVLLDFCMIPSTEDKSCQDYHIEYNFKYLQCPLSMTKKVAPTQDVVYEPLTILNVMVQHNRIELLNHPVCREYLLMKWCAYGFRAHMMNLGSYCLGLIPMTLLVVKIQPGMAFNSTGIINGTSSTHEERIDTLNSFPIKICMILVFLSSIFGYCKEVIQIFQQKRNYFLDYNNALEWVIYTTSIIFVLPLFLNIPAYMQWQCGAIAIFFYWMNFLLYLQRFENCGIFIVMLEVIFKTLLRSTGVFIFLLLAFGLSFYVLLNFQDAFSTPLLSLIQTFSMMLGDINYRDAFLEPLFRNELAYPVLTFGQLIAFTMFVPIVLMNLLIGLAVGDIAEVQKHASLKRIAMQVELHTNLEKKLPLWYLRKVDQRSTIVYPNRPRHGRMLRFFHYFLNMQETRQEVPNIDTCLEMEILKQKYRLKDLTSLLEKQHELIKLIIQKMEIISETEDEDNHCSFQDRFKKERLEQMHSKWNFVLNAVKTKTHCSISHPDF
T2 sequence (Q8BLA8+Q7Z020 fused, change not shown): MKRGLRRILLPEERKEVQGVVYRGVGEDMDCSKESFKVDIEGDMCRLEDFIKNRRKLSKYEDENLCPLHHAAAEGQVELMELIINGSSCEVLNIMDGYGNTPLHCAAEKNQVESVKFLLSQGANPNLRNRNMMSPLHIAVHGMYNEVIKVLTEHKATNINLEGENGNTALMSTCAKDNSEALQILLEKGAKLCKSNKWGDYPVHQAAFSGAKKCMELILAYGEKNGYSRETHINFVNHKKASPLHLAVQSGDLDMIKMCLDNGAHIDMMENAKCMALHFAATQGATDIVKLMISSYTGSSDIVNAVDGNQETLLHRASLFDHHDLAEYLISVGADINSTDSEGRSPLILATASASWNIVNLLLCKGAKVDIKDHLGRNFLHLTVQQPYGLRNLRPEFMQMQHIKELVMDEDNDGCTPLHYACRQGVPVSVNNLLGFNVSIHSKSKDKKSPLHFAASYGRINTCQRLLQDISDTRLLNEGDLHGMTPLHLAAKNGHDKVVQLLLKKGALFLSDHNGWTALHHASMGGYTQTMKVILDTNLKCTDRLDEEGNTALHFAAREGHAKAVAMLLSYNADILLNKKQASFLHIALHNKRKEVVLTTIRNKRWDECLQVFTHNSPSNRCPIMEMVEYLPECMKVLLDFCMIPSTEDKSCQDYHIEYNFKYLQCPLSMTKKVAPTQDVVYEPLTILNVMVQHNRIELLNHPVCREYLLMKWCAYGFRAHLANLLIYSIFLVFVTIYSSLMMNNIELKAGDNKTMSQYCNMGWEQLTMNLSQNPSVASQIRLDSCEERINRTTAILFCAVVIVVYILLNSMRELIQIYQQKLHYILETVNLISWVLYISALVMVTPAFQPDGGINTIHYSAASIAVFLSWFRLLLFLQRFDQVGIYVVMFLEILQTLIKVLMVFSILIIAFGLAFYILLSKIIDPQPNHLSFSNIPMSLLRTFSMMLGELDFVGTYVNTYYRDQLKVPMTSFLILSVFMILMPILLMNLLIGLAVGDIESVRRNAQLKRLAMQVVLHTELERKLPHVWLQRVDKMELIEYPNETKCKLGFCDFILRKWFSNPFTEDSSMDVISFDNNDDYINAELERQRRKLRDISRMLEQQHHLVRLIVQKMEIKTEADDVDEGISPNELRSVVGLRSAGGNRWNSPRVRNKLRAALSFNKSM

Structure (SMILES): FC(F)OC(F)C(F)(F)F (stereo not shown) [desflurane]
- Activation of mouse TRPA1 (mouse TRPA1): activates
- Neurons with evoked Ca2+ increase (DRG neurons): 36 of 123
- Sensitivity of mTRPA1-dTM5 chimera (mTRPA1-dTM5): abolished
- Response of dTRPA1-mN chimera (dTRPA1-mN chimera): no responses

Structure (SMILES): FC(F)OC(Cl)C(F)(F)F (stereo not shown) [isoflurane]
- Activation of TRPM8 currents (TRPM8; 0.9 mM (2.9 MAC)): failed to activate
- Effects at TRPM8 at holding potential −50 mV (TRPM8; [3]): negligible effects
- Activation of TRPV1 currents (TRPV1 [1]; 0.9 mM (2.9 MAC)): failed to activate
- Currents evoked after PDBu treatment in TRPV1-expressing HEK293 cells (TRPV1 [1]; VGA 0.9 mM, PDBu 500 nM, room temperature (25° C.)): activates currents
- Effect on TRPV1 when applied together with saturating octanol (TRPV1 [1]; isoflurane 0.9 mM + octanol 1.8 mM): negligible effects
- Enhancement of maximal voltage-evoked TRPV1 current (TRPV1 [1]; isoflurane 0.9 mM, n=5): 15±6%
- Reduction of TRPV1 V1/2 (TRPV1 [1]; isoflurane 0.9 mM, n=5): 23.0±6.2 mV
- Effects at TRPV1 at holding potential −50 mV (TRPV1 [1]; [3]): negligible effects
- V1/2 of TRPV1 voltage activation with isoflurane (Boltzmann fit) (TRPV1 [1]; isoflurane 0.9 mM, control 161.5±2.7 mV): 129.0±3.6 mV
- Capsaicin-evoked single channel activity (TRPV1 [2]; cell-free outside-out patches, capsaicin 30 nM, isoflurane 0.9 mM): increased
- Single TRPV1 channel activity in neurons after PDBu treatment (TRPV1 [2]; isoflurane 0.9 mM): activated
- Response of sensory neurons under control conditions (TRPV1 [2]; isoflurane 0.9 mM, AITC-insensitive neurons): negligible responses
- Enhancement of capsaicin-evoked whole-cell currents (TRPV1 [2]; isoflurane 0.9 mM, capsaicin 30 nM, n=5): approximately 3 fold
- Response of sensory neurons after BK treatment (TRPV1 [2]; isoflurane 0.9 mM, n=7, P<0.01): marked increase in current
- Membrane excitability under current-clamp, co-application with BK (TRPV1 [2]; n=3): depolarized neurons and initiated sustained spike discharge

Reference: US20110104301A1, “METHODS OF REDUCING PAIN AND INFLAMMATION” (Georgetown University, A Congressionally Chartered …, priority 2008, published 2011)
